Data on five compounds can be found in publication PMC6777825, “Differential scanning fluorimetric analysis of the amino-acid binding to taste receptor using a model receptor protein, the ligand-binding domain of fish T1r2a/T1r3” (PLoS ONE, 2019).

Molecules are shown by their SMILES. Where two headings read alike, the source gives them in different places.

In one series the target is medaka T1r2a/T1r3LBD (Oryzias latipes, UniProt A0A173M094+A0A173M0G2). The experiment in a line: Differential scanning fluorimetry (DSF) thermal shift ligand-binding assay. The settings on record: for ΔTm: average ± s.e.m., n = 4; for pKd-app: log 1/Kd-app, converted from S1 Table values (10 mM; L-Ala 1 mM, L-Gln 0.1 mM); for effect on thermal stability / Tm shift of T1r2a/T1r3LBD (in words): DSF, 0.1-10 mM amino acid; for Tm shift (in words): adding up to 10 mM. More on the design: species or system O. latipes. The procedure: The protein sample was prepared as described previously. Briefly, Drosophila S2 cells (Invitrogen) stably expressing C-terminal FLAG-tagged T1r2aLBD and T1r3LBD [11, 21] were cultured in ExpressFiveSFM (LifeTechnologies) for five days at 27 °C. The T1r2a/T1r3-LBD protein was purified from the culture medium by the use of ANTI-FLAG M2 Affinity Gel (SIGMA). The purified protein was dialyzed against the assay buffer (20 mM Tris-HCl, 300 mM NaCl, 2 mM CaCl2, pH 8.0).
The protein sample (~1 μg) was mixed with Protein Thermal Shift Dye (Applied Biosystems) and 10~10,000 μM concentration of each amino acid in 20 μL of assay buffer and loaded to a MicroAmpR Fast Optical 48-Well Reaction Plate (Applied Biosystems). Specifically, to minimize the changes of the chemical and optical condition, the amino acid solutions were prepared by the exact same buffer used for the final dialysis of the protein, followed by the re-adjustment of the pH to ~ 8.0 by addition of either NaOH or HCl, and mixed with the protein diluted with the same buffer.
Fluorescent intensity was measured by the StepOne Real-Time PCR System (Applied Biosystems). The temperature was raised from 25 °C to 99 °C with a velocity of 0.022 °C/sec. The reporter and quencher for detection were set as “ROX” and “none”, respectively. Apparent melting transition temperature (Tm) was determined by the use of the maximum of the derivatives of the melt curve (dFluorescence/dT) by Protein Thermal Shift Software version 1.3 (Applied Biosystems).
The apparent dissociation constant (Kd-app) derived from the DSF results was estimated based on Eq 1 proposed by Schellman, assuming that the unfolding of the protein is reversible: ΔTm=Tm−T0=TmT0R/ΔH^0ln(1+[L]/Kd-app) (1) where [L] is the ligand concentration; Tm and T0 are the apparent melting transition temperatures in the presence and absence of the ligand; R is the gas constant; ΔH^0 is the enthalpy of unfolding at T0, assuming that there are no significant variations under the tested conditions. If the melt curves show biphasic profiles, the second (or the right side) Tm values were adopted for calculation, as described in the Results section.
For multiple regression analyses shown in Fig 2B, the apparent Tm values determined at different ligand concentrations were fitted to Eq 1 by using KaleidaGraph (Synergy Software), assuming that the change of the dissociation constant accompanied by the Tm shift is negligible.

Series [1] has as its target T1r2a/T1r3 full-length receptor (Oryzias latipes, UniProt A0A173M094+A0A173M0G2). The series is described as follows: Ca2+-flux receptor response assay in Flip-In 293 cells stably expressing full-length T1r2a, T1r3 and Gα16-gust44. The settings on record: for ΔRFU: average ± s.e.m. The series is classed as cell-based, O. latipes. The procedure:
The Ca^2+-flux assay was performed using Flip-In 293 cell line (Life Technologies) stably expressing full-length T1r2a, T1r3, and Gα16-gust44 as described previously. The response stimulated by either 5 or 10 mM amino acid was represented asΔRFU (delta relative fluorescence unit) defined as the maximum fluorescence intensity induced by the addition of the amino acid, subtracted with that of an assay buffer in the absence of amino acid.

For series [2] the following is noted: cited from earlier work; for Hydropathy Index: hydrophobicity/hydrophilicity, ref Kyte & Doolittle, J. Mol. Biol., 157, 105 (1982); for pI: ref Handbook of Chemistry and Physics, CRC Press; for logKd_CW (polarity): transfer from cyclohexane to an aqueous solution, ref Radzicka & Wolfenden, Biochemistry, 27, 1664 (1988); for Es'c (steric effects) / πα (hydrophobicity) / HP (hydration potential): α-substituent group; for Es'c (steric effects) / πα (hydrophobicity): ref Akamatsu et al., J. Pharm. Sci., 83, 1026 (1994); for HP (hydration potential): ref Wolfenden et al., Biochemistry, 20, 849 (1981).

Where [3] appears, read: from ΔTm at 10 mM via Eq 1, T0 326.1 K, ΔH0 72.1 kcal mol-1, read-out: Kd-app estimated at a single ligand concentration.
Setting [4] is: 5 mM amino acid, n = 6 (n = 12 for L-glutamine).
Where [5] appears, read: estimated from ΔRFU at 10 mM by Hill equation, ΔRFUmax 104.3, read-out: EC50-est.
Where [6] appears, read: from response at 10 mM, log 1/EC50-est.
Where [7] appears, read: from response at 10 mM, log 1/EC50-est, read-out: pEC50-est (converted).

T1r2a/T1r3 full-length receptor, sequence (A0A173M0G2 entry or part of it): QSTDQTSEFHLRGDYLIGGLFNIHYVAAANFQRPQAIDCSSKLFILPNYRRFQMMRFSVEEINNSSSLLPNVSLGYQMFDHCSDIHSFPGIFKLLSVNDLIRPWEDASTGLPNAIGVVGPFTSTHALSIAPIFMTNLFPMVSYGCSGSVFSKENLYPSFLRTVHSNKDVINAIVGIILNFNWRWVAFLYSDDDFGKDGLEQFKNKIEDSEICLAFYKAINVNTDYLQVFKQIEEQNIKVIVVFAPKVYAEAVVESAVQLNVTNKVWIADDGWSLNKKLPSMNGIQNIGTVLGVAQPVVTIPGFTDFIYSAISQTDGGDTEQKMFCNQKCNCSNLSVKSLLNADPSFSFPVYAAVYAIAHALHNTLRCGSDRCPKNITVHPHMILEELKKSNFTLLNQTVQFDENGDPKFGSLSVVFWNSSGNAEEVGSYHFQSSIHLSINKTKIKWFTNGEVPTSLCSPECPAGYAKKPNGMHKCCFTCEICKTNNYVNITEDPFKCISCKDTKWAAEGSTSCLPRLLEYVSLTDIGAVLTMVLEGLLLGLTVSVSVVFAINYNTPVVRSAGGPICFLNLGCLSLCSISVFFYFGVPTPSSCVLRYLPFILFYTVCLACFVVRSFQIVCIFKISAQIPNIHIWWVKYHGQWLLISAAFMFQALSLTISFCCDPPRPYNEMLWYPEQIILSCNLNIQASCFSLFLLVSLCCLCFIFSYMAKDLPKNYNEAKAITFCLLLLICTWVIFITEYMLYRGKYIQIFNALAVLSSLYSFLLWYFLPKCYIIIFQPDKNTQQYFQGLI
T1r2a/T1r3 full-length receptor, sequence (A0A173M094 entry or part of it): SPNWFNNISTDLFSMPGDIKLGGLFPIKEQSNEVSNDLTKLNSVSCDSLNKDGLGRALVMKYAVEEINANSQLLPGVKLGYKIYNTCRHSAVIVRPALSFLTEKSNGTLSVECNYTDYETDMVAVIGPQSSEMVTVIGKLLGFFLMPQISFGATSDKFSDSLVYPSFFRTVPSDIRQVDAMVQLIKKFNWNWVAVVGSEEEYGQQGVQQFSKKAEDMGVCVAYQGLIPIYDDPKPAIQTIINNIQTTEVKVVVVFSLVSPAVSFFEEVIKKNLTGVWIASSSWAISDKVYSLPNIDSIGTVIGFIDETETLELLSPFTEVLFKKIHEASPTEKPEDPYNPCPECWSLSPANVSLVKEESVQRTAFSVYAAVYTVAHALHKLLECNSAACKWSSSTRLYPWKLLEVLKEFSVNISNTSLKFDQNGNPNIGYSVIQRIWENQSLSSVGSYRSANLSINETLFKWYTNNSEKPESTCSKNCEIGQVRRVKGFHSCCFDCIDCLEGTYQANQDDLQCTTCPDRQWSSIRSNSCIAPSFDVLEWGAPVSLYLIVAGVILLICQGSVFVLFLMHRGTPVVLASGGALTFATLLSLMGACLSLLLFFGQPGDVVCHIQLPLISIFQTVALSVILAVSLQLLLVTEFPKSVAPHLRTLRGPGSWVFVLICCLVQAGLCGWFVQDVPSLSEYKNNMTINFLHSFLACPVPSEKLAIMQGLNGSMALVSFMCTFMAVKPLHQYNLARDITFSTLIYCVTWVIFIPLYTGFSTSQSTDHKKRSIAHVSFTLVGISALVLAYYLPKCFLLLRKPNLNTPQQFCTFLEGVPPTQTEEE
medaka T1r2a/T1r3LBD, sequence (A0A173M094 entry or part of it): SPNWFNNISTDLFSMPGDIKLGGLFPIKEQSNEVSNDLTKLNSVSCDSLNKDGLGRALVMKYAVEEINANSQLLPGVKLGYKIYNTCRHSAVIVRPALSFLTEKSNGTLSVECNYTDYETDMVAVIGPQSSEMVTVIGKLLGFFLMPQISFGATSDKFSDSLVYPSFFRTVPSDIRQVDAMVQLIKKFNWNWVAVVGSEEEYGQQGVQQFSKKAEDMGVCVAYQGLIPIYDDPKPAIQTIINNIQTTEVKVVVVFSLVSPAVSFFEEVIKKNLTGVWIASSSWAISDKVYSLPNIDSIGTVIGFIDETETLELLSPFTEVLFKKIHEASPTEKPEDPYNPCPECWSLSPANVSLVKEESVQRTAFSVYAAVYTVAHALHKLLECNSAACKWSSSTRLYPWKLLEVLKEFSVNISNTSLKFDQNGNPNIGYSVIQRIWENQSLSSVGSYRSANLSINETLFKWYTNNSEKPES
medaka T1r2a/T1r3LBD, sequence (A0A173M0G2 entry or part of it): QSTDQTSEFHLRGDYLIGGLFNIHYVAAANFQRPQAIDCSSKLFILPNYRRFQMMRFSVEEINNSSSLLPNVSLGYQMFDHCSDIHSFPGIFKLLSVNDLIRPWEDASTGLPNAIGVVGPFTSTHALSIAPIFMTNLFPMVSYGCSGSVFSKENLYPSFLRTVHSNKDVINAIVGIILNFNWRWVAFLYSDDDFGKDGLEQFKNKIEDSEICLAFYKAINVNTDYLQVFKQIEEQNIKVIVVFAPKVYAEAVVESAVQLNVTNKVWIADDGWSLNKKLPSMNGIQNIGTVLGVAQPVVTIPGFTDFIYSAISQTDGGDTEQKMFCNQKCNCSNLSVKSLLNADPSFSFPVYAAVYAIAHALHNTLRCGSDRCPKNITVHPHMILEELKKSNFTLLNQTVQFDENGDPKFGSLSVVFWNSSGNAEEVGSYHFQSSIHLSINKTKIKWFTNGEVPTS

For the compound `N[C@@H](Cc1c[nH]cn1)C(=O)O` [L-His], the ΔTm at medaka T1r2a/T1r3LBD (0.1 mM amino acid) was -3.75 ± 0.33 K. For the same compound, the ΔTm on medaka T1r2a/T1r3LBD (1 mM amino acid) is 1.21 ± 0.02 K. In addition, the ΔTm on medaka T1r2a/T1r3LBD (10 mM amino acid) was found to be 5.81 ± 0.07 K. At medaka T1r2a/T1r3LBD (from ΔTm at 1 mM via Eq 1, T0 326.1 K, ΔH0 72.1 kcal mol-1, read-out: Kd-app estimated at a single ligand concentration), the potency estimated from few doses is 1.96 mM. Further, at medaka T1r2a/T1r3LBD (setting [3]), the potency estimated from few doses was 1.67 mM. The pKd-app on medaka T1r2a/T1r3LBD is given as 2.78. The same compound displayed a ΔRFU in series [1] (setting [4]) of 4.72 ± 2.39. The ΔRFU in series [1] (10 mM amino acid, n = 6) amounted to 14.4 ± 6.62. Moreover, the EC50 in series [1] (setting [5]) is 62.4 mM. In series [1] (setting [6]), this compound registered a pEC50-est of 1.20. Moreover, in series [2], the “Hydropathy Index” value was -3.2, the pI is reported as 7.59, the “logKd_CW (polarity)” value is on record as 3.34 and the “Es'c (steric effects)” value is -0.86. Moreover, in series [2], the “πα (hydrophobicity)” value is recorded as 0.17 and the “HP (hydration potential)” value is -10.27.
`NCCCC[C@H](N)C(=O)O` [L-Lys, L-lysine]: the values for the ΔTm at medaka T1r2a/T1r3LBD (0.1 mM amino acid), at medaka T1r2a/T1r3LBD (1 mM amino acid) and at medaka T1r2a/T1r3LBD (10 mM amino acid) were -0.04 ± 0.03 K, -0.40 ± 0.17 K and -3.83 ± 0.30 K, respectively. For the same compound, the entries for the “effect on thermal stability / Tm shift of T1r2a/T1r3LBD (in words)” value on medaka T1r2a/T1r3LBD (listed as L-lysine) and on medaka T1r2a/T1r3LBD (listed as lysine) were “thermal destabilization” and “destabilized the protein”, respectively. Also, the ΔRFU was determined as 8.68 ± 4.29 in series [1] (setting [4]) and 18.5 ± 8.01 in series [1] (10 mM amino acid, n = 6). Moreover, the EC50 was 55.1 mM in series [1] (EC50-est, estimated from ΔRFU at 5 mM by Hill equation, ΔRFUmax 104.3); 46.5 mM in series [1] (EC50-est, estimated from ΔRFU at 10 mM by Hill equation, ΔRFUmax 104.3); 55 mM in series [1] (pEC50-est, from response at 5 mM, log 1/EC50-est); 46.8 mM in series [1] (pEC50-est, from response at 10 mM, log 1/EC50-est).
Regarding `CC(C)[C@H](N)C(=O)O` [L-Val], the ΔTm at medaka T1r2a/T1r3LBD (0.1 mM amino acid) is 0.11 ± 0.24 K. Further, the ΔTm at medaka T1r2a/T1r3LBD (1 mM amino acid) is on record as -0.77 ± 0.14 K. Moreover, the ΔTm on medaka T1r2a/T1r3LBD (10 mM amino acid) turned out to be 7.85 ± 0.03 K. Further, the potency estimated from few doses on medaka T1r2a/T1r3LBD (from ΔTm at 0.1 mM via Eq 1, T0 326.1 K, ΔH0 72.1 kcal mol-1, read-out: Kd-app estimated at a single ligand concentration) was 2.63 mM. The potency estimated from few doses at medaka T1r2a/T1r3LBD (setting [3]) was 0.793 mM. Moreover, the pKd-app on medaka T1r2a/T1r3LBD stood at 3.10. Besides, the ΔRFU in series [1] (setting [4]) was 3.89 ± 1.23. Besides, in series [1] (10 mM amino acid, n = 6), the ΔRFU is 32.4 ± 7.56. Further, the EC50 in series [1] (setting [5]) is 22.2 mM. Also, in series [1] (setting [6]), the pEC50-est amounted to 1.65. Also, in series [2], the “Hydropathy Index” value is listed as 4.2, the pI was 5.96, the “logKd_CW (polarity)” value was -2.97 and the “Es'c (steric effects)” value is on record as -1.29. In series [2], the “πα (hydrophobicity)” value is given as 1 and the “HP (hydration potential)” value is recorded as 1.99.
Regarding `O=C(O)[C@@H]1CCCN1` [L-Pro, L-proline], the ΔTm is reported as -0.15 ± 0.04 K at medaka T1r2a/T1r3LBD (0.1 mM amino acid), 0.04 ± 0.07 K on medaka T1r2a/T1r3LBD (1 mM amino acid) and 7.24 ± 0.02 K at medaka T1r2a/T1r3LBD (10 mM amino acid). Moreover, the potency estimated from few doses was 79.9 mM on medaka T1r2a/T1r3LBD (read-out: Kd-app estimated at a single ligand concentration, from ΔTm at 1 mM via Eq 1, T0 326.1 K, ΔH0 72.1 kcal mol-1) and 0.985 mM at medaka T1r2a/T1r3LBD (read-out: Kd-app estimated at a single ligand concentration, from ΔTm at 10 mM via Eq 1, T0 326.1 K, ΔH0 72.1 kcal mol-1). In addition, the ΔRFU in series [1] (setting [4]) turned out to be 2.90 ± 1.93; in series [1] (10 mM amino acid, n = 6), 45.1 ± 7.06. For the same compound, the EC50 in series [1] (setting [5]) and in series [1] (setting [7]) was 13.2 mM throughout.
As for `C[C@@H](N)C(=O)O` [D-Ala, D-alanine], the ΔTm on medaka T1r2a/T1r3LBD (0.1 mM amino acid) is on record as 0.15 ± 0.05 K; on medaka T1r2a/T1r3LBD (1 mM amino acid), -0.33 ± 0.07 K; at medaka T1r2a/T1r3LBD (10 mM amino acid) it was -1.03 ± 0.09 K. In addition, on medaka T1r2a/T1r3LBD, the “effect on thermal stability / Tm shift of T1r2a/T1r3LBD (in words)” value is on record as “thermal destabilization”. The “Tm shift (in words)” value is listed as “did not induce a significant Tm shift” on medaka T1r2a/T1r3LBD (listed as D-alanine) and “no substantial Tm shifts” on medaka T1r2a/T1r3LBD (listed as d-alanine). Further, the potency estimated from few doses at medaka T1r2a/T1r3LBD (read-out: Kd-app estimated at a single ligand concentration, from ΔTm at 0.1 mM via Eq 1, T0 326.1 K, ΔH0 72.1 kcal mol-1) was 1.95 mM. Moreover, the ΔRFU in series [1] (setting [4]) is 7.08 ± 2.16; in series [1] (10 mM amino acid, n = 6), 23.6 ± 8.83. Besides, the “full-length receptor response (in words)” value in series [1] (5 or 10 mM, compared to enantiomer L-alanine) was “significantly weak responses”. For the same compound, the EC50 is 68.7 mM in series [1] (estimated from ΔRFU at 5 mM by Hill equation, ΔRFUmax 104.3, read-out: EC50-est); 34.2 mM in series [1] (setting [5]); 69.2 mM in series [1] (from response at 5 mM, log 1/EC50-est, read-out: pEC50-est (converted)); 33.9 mM in series [1] (setting [7]).
